Here are results for twelve molecules from article PMC5834442, “Identifying inhibitors of the Leishmania inositol phosphorylceramide synthase with antiprotozoal activity using a yeast-based assay and ultra-high throughput screening platform” (Scientific Reports, 2018).

One assay has as its system L. donovani (MHOM/SD/62/1S-CL2D, LdBOB) axenic amastigotes. Kind of assay: Leishmania donovani axenic amastigote dose response assay (resazurin). The settings on record: -logIC50 mol against L. donovani (LdBOB) axenic amastigotes, read-out: pIC50 Axenic (converted). The assay is classed as cell-based. In general terms: The colour change of resazurin is a common sign of viable cells or microbes.
For `Cc1cc(C)n2nc(S(=O)(=O)Nc3ccccc3[N+](=O)[O-])nc2n1` [ST/512740], the IC50 is 9.33 µM.

With `O=C(Nc1cccc(S(=O)(=O)Nc2ccccc2Cl)c1)c1ccc([N+](=O)[O-])o1` [ST/579040], the IC50 was 0.49 µM.

`O=C(Nc1scc(-c2ccc(Br)cc2)c1C(=O)O)c1ccccc1F` [ST/656010]: the IC50 is 8.32 µM.

Take `COc1cc(OC)cc(C(=O)Nc2nnc(-c3ccccc3Cl)o2)c1` [ST/709938]: the IC50 is 0.776 µM.

As for `O=C(O)c1ccccc1Sc1ncnc2scc(-c3ccccc3)c12` [ST/837236], the IC50 is 9.77 µM.

With `NC(=O)c1ccsc1NC(=O)c1ccc([N+](=O)[O-])s1` [ST/918837], the IC50 was 0.331 µM.

With `CS(=O)(=O)c1oc(-c2ccc(F)cc2)nc1S(=O)(=O)c1ccc(Cl)cc1` [ST/1032211], the IC50 is 0.437 µM.

Regarding `COc1ccc(S(=O)(=O)Nc2cc([N+](=O)[O-])ccc2Cl)cc1C(C)C` [ST/1153644], the IC50 is 10 µM.

For the molecule `CN(C)S(=O)(=O)c1ccc(Cl)c(NS(=O)(=O)c2ccc(C(C)(C)C)cc2)c1` [ST/1238223], the IC50 is 6.76 µM.

With `O=C(NC1CCN(Cc2ccc(Cl)s2)CC1)N1CCc2cc(Cl)ccc21` [ST/1291407], the IC50 was 2.88 µM.

In the case of `CC(=O)N1N=C(c2ccco2)OC1COc1ccc(Cl)cc1C` (stereo not drawn) [ST/1451140], the IC50 is 6.92 µM.

For the molecule `CC(=O)N1N=C(COc2ccc(Cl)cc2C)OC1c1cccs1` (stereo not drawn) [ST/1455408], the IC50 was 7.76 µM.

In a further assay the test system is HepG2 cells. The experiment in a line: Mammalian cell cytotoxicity assay (CellTiter-Glo). The assay is classed as cell-based, human. The settings on record: Homo sapiens; -logIC50 mol against HepG2; read-out: PIC50 HepG2 (converted). On the technique in general: In ATP-based viability assays light output follows the ATP content of the culture.
In the case of `Cc1cc(C)n2nc(S(=O)(=O)Nc3ccccc3[N+](=O)[O-])nc2n1` [ST/512740], the IC50 was > 100 µM.

For the molecule `O=C(Nc1cccc(S(=O)(=O)Nc2ccccc2Cl)c1)c1ccc([N+](=O)[O-])o1` [ST/579040], the IC50 was 22.4 µM.

Consider `O=C(Nc1scc(-c2ccc(Br)cc2)c1C(=O)O)c1ccccc1F` [ST/656010], for which the IC50 was > 100 µM.

For `COc1cc(OC)cc(C(=O)Nc2nnc(-c3ccccc3Cl)o2)c1` [ST/709938], the IC50 is 85.1 µM.

Turning to `O=C(O)c1ccccc1Sc1ncnc2scc(-c3ccccc3)c12` [ST/837236], the IC50 is > 100 µM.

For the molecule `NC(=O)c1ccsc1NC(=O)c1ccc([N+](=O)[O-])s1` [ST/918837], the IC50 was > 100 µM.

As for `CS(=O)(=O)c1oc(-c2ccc(F)cc2)nc1S(=O)(=O)c1ccc(Cl)cc1` [ST/1032211], the IC50 was 17.4 µM.

For `COc1ccc(S(=O)(=O)Nc2cc([N+](=O)[O-])ccc2Cl)cc1C(C)C` [ST/1153644], the IC50 was > 100 µM.

Take `CN(C)S(=O)(=O)c1ccc(Cl)c(NS(=O)(=O)c2ccc(C(C)(C)C)cc2)c1` [ST/1238223]: the IC50 was > 100 µM.

Turning to `O=C(NC1CCN(Cc2ccc(Cl)s2)CC1)N1CCc2cc(Cl)ccc21` [ST/1291407], the IC50 is 67.6 µM.

In the case of `CC(=O)N1N=C(c2ccco2)OC1COc1ccc(Cl)cc1C` (stereo not drawn) [ST/1451140], the IC50 is > 100 µM.

On to `CC(=O)N1N=C(COc2ccc(Cl)cc2C)OC1c1cccs1` (stereo not drawn) [ST/1455408], for which the IC50 was 97.7 µM.

Staying with this assay, now noted: selectivity, pIC50 axenic minus pIC50 HepG2.
As for `O=C(O)c1ccccc1Sc1ncnc2scc(-c3ccccc3)c12` [ST/837236], the “pSI v HepG2” value was determined as 1.01.

With `NC(=O)c1ccsc1NC(=O)c1ccc([N+](=O)[O-])s1` [ST/918837], the “pSI v HepG2” value was 2.48.

The same assay, now with this note: selectivity: pIC50 axenic minus pIC50 HepG2.
In the case of `Cc1cc(C)n2nc(S(=O)(=O)Nc3ccccc3[N+](=O)[O-])nc2n1` [ST/512740], the “pSI v HepG2” value is reported as 1.03.

Regarding `O=C(Nc1cccc(S(=O)(=O)Nc2ccccc2Cl)c1)c1ccc([N+](=O)[O-])o1` [ST/579040], the “pSI v HepG2” value is recorded as 1.66.

On to `O=C(Nc1scc(-c2ccc(Br)cc2)c1C(=O)O)c1ccccc1F` [ST/656010], for which the “pSI v HepG2” value is given as 1.08.

Turning to `COc1cc(OC)cc(C(=O)Nc2nnc(-c3ccccc3Cl)o2)c1` [ST/709938], the “pSI v HepG2” value was 2.04.

Turning to `CS(=O)(=O)c1oc(-c2ccc(F)cc2)nc1S(=O)(=O)c1ccc(Cl)cc1` [ST/1032211], the “pSI v HepG2” value came to 1.60.

In the case of `COc1ccc(S(=O)(=O)Nc2cc([N+](=O)[O-])ccc2Cl)cc1C(C)C` [ST/1153644], the “pSI v HepG2” value is reported as 1.00.

On to `CN(C)S(=O)(=O)c1ccc(Cl)c(NS(=O)(=O)c2ccc(C(C)(C)C)cc2)c1` [ST/1238223], for which the “pSI v HepG2” value came out at 1.17.

Regarding `O=C(NC1CCN(Cc2ccc(Cl)s2)CC1)N1CCc2cc(Cl)ccc21` [ST/1291407], the “pSI v HepG2” value came to 1.37.

Take `CC(=O)N1N=C(c2ccco2)OC1COc1ccc(Cl)cc1C` (stereo not drawn) [ST/1451140]: the “pSI v HepG2” value was found to be 1.16.

Take `CC(=O)N1N=C(COc2ccc(Cl)cc2C)OC1c1cccs1` (stereo not drawn) [ST/1455408]: the “pSI v HepG2” value was found to be 1.10.

A further assay concerns intra-macrophage Leishmania donovani amastigotes. The experiment in a line: Intramacrophage Leishmania donovani assay (high content imaging). It is filed as cell-based. The settings on record: Leishmania donovani; intramacrophage L. donovani amastigotes; read-out: pIC50 InMac (converted).
For the molecule `O=C(O)c1ccccc1Sc1ncnc2scc(-c3ccccc3)c12` [ST/837236], the IC50 is 40.7 µM.

As for `NC(=O)c1ccsc1NC(=O)c1ccc([N+](=O)[O-])s1` [ST/918837], the IC50 is 2.04 µM.

The same assay, now with this note: Leishmania donovani; intramacrophage L. donovani; read-out: pIC50 InMac (converted).
Consider `Cc1cc(C)n2nc(S(=O)(=O)Nc3ccccc3[N+](=O)[O-])nc2n1` [ST/512740], for which the IC50 was > 50.1 µM.

On to `O=C(Nc1cccc(S(=O)(=O)Nc2ccccc2Cl)c1)c1ccc([N+](=O)[O-])o1` [ST/579040], for which the IC50 was 11.2 µM.

For the molecule `O=C(Nc1scc(-c2ccc(Br)cc2)c1C(=O)O)c1ccccc1F` [ST/656010], the IC50 was > 50.1 µM.

Take `COc1cc(OC)cc(C(=O)Nc2nnc(-c3ccccc3Cl)o2)c1` [ST/709938]: the IC50 was 26.3 µM.

Turning to `CS(=O)(=O)c1oc(-c2ccc(F)cc2)nc1S(=O)(=O)c1ccc(Cl)cc1` [ST/1032211], the IC50 was 4.27 µM.

With `COc1ccc(S(=O)(=O)Nc2cc([N+](=O)[O-])ccc2Cl)cc1C(C)C` [ST/1153644], the IC50 was 38.9 µM.

Turning to `CN(C)S(=O)(=O)c1ccc(Cl)c(NS(=O)(=O)c2ccc(C(C)(C)C)cc2)c1` [ST/1238223], the IC50 is > 50.1 µM.

Consider `O=C(NC1CCN(Cc2ccc(Cl)s2)CC1)N1CCc2cc(Cl)ccc21` [ST/1291407], for which the IC50 was 2.09 µM.

As for `CC(=O)N1N=C(c2ccco2)OC1COc1ccc(Cl)cc1C` (stereo not drawn) [ST/1451140], the IC50 is > 50.1 µM.

For the molecule `CC(=O)N1N=C(COc2ccc(Cl)cc2C)OC1c1cccs1` (stereo not drawn) [ST/1455408], the IC50 was > 50.1 µM.

In another assay the test system is THP-1 macrophages. Kind of assay: Host cell toxicity in the intramacrophage assay. The following applies: Homo sapiens; THP-1 host cells in intramacrophage assay; read-out: pIC50 THP-1 (converted). The assay is classed as cell-based, human.
Consider `Cc1cc(C)n2nc(S(=O)(=O)Nc3ccccc3[N+](=O)[O-])nc2n1` [ST/512740], for which the IC50 is > 50.1 µM.

For the molecule `O=C(Nc1cccc(S(=O)(=O)Nc2ccccc2Cl)c1)c1ccc([N+](=O)[O-])o1` [ST/579040], the IC50 is 12 µM.

With `O=C(Nc1scc(-c2ccc(Br)cc2)c1C(=O)O)c1ccccc1F` [ST/656010], the IC50 is > 50.1 µM.

On to `COc1cc(OC)cc(C(=O)Nc2nnc(-c3ccccc3Cl)o2)c1` [ST/709938], for which the IC50 is > 50.1 µM.

For the molecule `O=C(O)c1ccccc1Sc1ncnc2scc(-c3ccccc3)c12` [ST/837236], the IC50 was > 50.1 µM.

On to `NC(=O)c1ccsc1NC(=O)c1ccc([N+](=O)[O-])s1` [ST/918837], for which the IC50 was 26.9 µM.

Turning to `CS(=O)(=O)c1oc(-c2ccc(F)cc2)nc1S(=O)(=O)c1ccc(Cl)cc1` [ST/1032211], the IC50 was 3.63 µM.

In the case of `COc1ccc(S(=O)(=O)Nc2cc([N+](=O)[O-])ccc2Cl)cc1C(C)C` [ST/1153644], the IC50 was > 50.1 µM.

For `CN(C)S(=O)(=O)c1ccc(Cl)c(NS(=O)(=O)c2ccc(C(C)(C)C)cc2)c1` [ST/1238223], the IC50 is > 50.1 µM.

In the case of `O=C(NC1CCN(Cc2ccc(Cl)s2)CC1)N1CCc2cc(Cl)ccc21` [ST/1291407], the IC50 was 6.03 µM.

Regarding `CC(=O)N1N=C(c2ccco2)OC1COc1ccc(Cl)cc1C` (stereo not drawn) [ST/1451140], the IC50 was > 50.1 µM.

On to `CC(=O)N1N=C(COc2ccc(Cl)cc2C)OC1c1cccs1` (stereo not drawn) [ST/1455408], for which the IC50 is > 50.1 µM.

Staying with this assay, now noted: selectivity, pIC50 InMac minus pIC50 THP-1.
With `O=C(O)c1ccccc1Sc1ncnc2scc(-c3ccccc3)c12` [ST/837236], the “pSI v THP-1” value amounted to 0.09.

As for `NC(=O)c1ccsc1NC(=O)c1ccc([N+](=O)[O-])s1` [ST/918837], the “pSI v THP-1” value is on record as 1.12.

The same assay, now with this note: selectivity: pIC50 InMac minus pIC50 THP-1.
Turning to `Cc1cc(C)n2nc(S(=O)(=O)Nc3ccccc3[N+](=O)[O-])nc2n1` [ST/512740], the “pSI v THP-1” value stood at 0.00.

As to `O=C(Nc1cccc(S(=O)(=O)Nc2ccccc2Cl)c1)c1ccc([N+](=O)[O-])o1` [ST/579040], the “pSI v THP-1” value was determined as 0.03.

Take `O=C(Nc1scc(-c2ccc(Br)cc2)c1C(=O)O)c1ccccc1F` [ST/656010]: the “pSI v THP-1” value was found to be 0.00.

Consider `COc1cc(OC)cc(C(=O)Nc2nnc(-c3ccccc3Cl)o2)c1` [ST/709938], for which the “pSI v THP-1” value was found to be 0.28.

With `CS(=O)(=O)c1oc(-c2ccc(F)cc2)nc1S(=O)(=O)c1ccc(Cl)cc1` [ST/1032211], the “pSI v THP-1” value was -0.07.

In the case of `COc1ccc(S(=O)(=O)Nc2cc([N+](=O)[O-])ccc2Cl)cc1C(C)C` [ST/1153644], the “pSI v THP-1” value amounted to 0.11.

Take `CN(C)S(=O)(=O)c1ccc(Cl)c(NS(=O)(=O)c2ccc(C(C)(C)C)cc2)c1` [ST/1238223]: the “pSI v THP-1” value is given as 0.00.

Regarding `O=C(NC1CCN(Cc2ccc(Cl)s2)CC1)N1CCc2cc(Cl)ccc21` [ST/1291407], the “pSI v THP-1” value is on record as 0.46.

Consider `CC(=O)N1N=C(c2ccco2)OC1COc1ccc(Cl)cc1C` (stereo not drawn) [ST/1451140], for which the “pSI v THP-1” value stood at 0.00.

In the case of `CC(=O)N1N=C(COc2ccc(Cl)cc2C)OC1c1cccs1` (stereo not drawn) [ST/1455408], the “pSI v THP-1” value was 0.00.
